Experimental data from patent publication US7091357B2, “Chain-modified pyridino-N substituted nicotine compounds for use in the treatment of CNS pathologies” (University of Kentucky Research Foundation, priority 2001, dated 2006).
Counter-ions that a name gives are not always drawn. Like-named read-outs stand apart in the source and are kept apart here.

What was measured:
[1] = test system: putative α3β2* receptor subtype; assay: Inhibition of S-(−)-NIC-evoked [3H]-DA release from rat striatal slices; type: cell-based; conditions: rat striatal slices superfused 60 minutes with analog prior to NIC (10 μM)
Protocol: Rat striatal slices (500 μm thickness, 6–8 mg wet weight) were incubated for 30 minutes in Kreb's buffer (118 mM NaCl, 4.7 mMKCl, 1.2 mM MgCl2, 1.0 mM NaH2PO4, 1.3 mM CaCl2, 11.1 mM glucose, 25 mM NaHCO3, 0.11 mM L-ascorbic acid, and 0.004 mM disodium EDTA; pH 7.4, and saturated with 95% O2/5% CO2) in a metabolic shaker at 34° C. Slices were rinsed with 15 ml of fresh buffer and incubated for an additional 30 minutes in fresh buffer containing 0.1 μM [^3]H-DA (6 slices/3 ml). Subsequently, slices were rinsed with 15 ml of fresh buffer and transferred to a glass superfusion chamber. Slices were superfused (1.0 ml/min) for 60 minutes with Kreb's buffer containing nomifensine (10 μM) and pargyline (10 μM) and maintained at 34° C., pH 7.4, with continual aeration (95% O2/5% CO2). Two five minute samples (5 ml each) were collected to determine basal outflow of [^3H]-DA. […] Subsequently, S-(−)-nicotine (10 μM) was added to the buffer and an additional 12 consecutive five minute samples were collected. At the end of the experiment, each slice was solubilized and the [^3H] content of the tissue determined.
Radioactivity in the superfusate and tissue samples was determined by liquid scintillation spectroscopy. Fractional release for each sample was calculated by dividing by the total tritium present in the tissue at the time of sample collection, and was expressed as a percentage of total tissue tritium. […] The sum of the increase in collected tritium resulting from either exposure to the test-compound or exposure to nicotine in the absence and presence of the test compound equaled total [^3H]overflow. [^3H]Overflow was calculated by subtracting the [^3H]outflow during an equivalent period of prestimulation from the values in samples collected during and after drug exposure. Inasmuch as the radiolabelled compounds were not separated and identified, the tritium collected in superfusate is referred to as either [^3H]outflow or [^3 H]overflow, rather than as [^3H]-DA. [^3H]Overflow primarily represents [^3H]-DA in the presence of nomifensine and pargyline in the superfusion buffer.
In these experiments, striatal slices were superfused for 60 minutes with various concentrations of the analogs prior to NIC (10 μM) exposure. Antagonist activity was evaluated by comparing the NIC-evoked [^3H]overflow in the absence and presence of the analogs.

[2] = target: T1, Rat Striatal Nicotinic Acetylcholine Receptors (Rattus norvegicus, UniProt P09483+P12390); assay: [3H]-NIC binding assay, rat striatal membranes; conditions: 3 nM [3H]-NIC, at least 3 independent experiments, read-out: Ki, displacement of [3H]-NIC binding
T1 construct: from tissue; host or cells: rat striatal membranes
Protocol: Striata from two rats were dissected, pooled, and homogenized with a Tekmar polytron in 10 volumes of ice-cold modified Krebs-HEPES buffer (20 mM HEPES, 118 mM NaCl, 4.8 mM KCl, 2.5 mM CaCl2, 1.2 mM MgSO4, adjusted to pH 7.5). The homogenates were incubated at 37° C. for 5 minutes and centrifuged at 15,000 g for 20 minutes. The pellet was resuspended in 10 volumes of ice-cold MilliQ water, incubated for 5 minutes at 37° C., and centrifuged at 15,000 g for 20 mm. The second pellet was then resuspended in 10 volumes of fresh ice-cold 10% Krebs-HEPES buffer, incubated at 37° C., and centrifuged at 15,000 g for 20 minutes. The latter sequence of resuspension, incubation, and rentrifugation was repeated. The pellet was frozen under fresh 10% Krebs-HEPES buffer and stored at −40° C. until assayed. Upon assay, the pellet was resuspended in the Krebs-HEPES buffer, incubated at 37° C. for 5 minutes, and centrifuged at 15,000 g for 20 mm. The final pellet was resuspended in 3.6 ml ice-cold MilliQ water which provided for approximately 200 μg protein per 100 μl aliquot. Competition assays were performed in triplicate in a final volume of 200 μl Krebs-HEPES buffer containing 250 mmol Tris buffer (pH 7.5 at 4° C.). […] After a 90 min incubation at 4° C., reactions were terminated by dilution of the samples with 3 ml of ice-cold Krebs-HEPES buffer followed immediately by filtration through Whatman GF/B glass fiber filters (presoaked in 0.5% polyethyleneimine) using a Brandel Cell Harvester. Filters were rinsed three times with 3 ml of ice-cold Krebs-HEPES buffer, transferred to scintillation vials, and 5 ml scintillation cocktail (Research Products International Corp., Mt. Prospect, Ill.) added. Nonspecific binding determined in triplicate was defined as binding in the presence of 10 μM NIC. Binding parameters were determined using the weighted, least squares nonlinear regression analysis.

[3] = target: T2, α7 neuronal nicotinic acetylcholine receptor subtype (Rattus norvegicus, UniProt Q05941); assay: [3H]-MLA binding assay, rat brain membranes; conditions: read-out: Ki, displacement of [3H]-MLA binding
T2 construct: from tissue; host or cells: rat brain membranes (without cortex, striatum and cerebellum)
Protocol: Rat brain tissue (without cortex, striatum and cerebellum) was homogenized with a Tekmar Polytron (setting 40) in 20 volumes of ice-cold hypotonic buffer (2 mM HEPES, 14.4 mM NaCl, 0.15 mM KCl, 0.2 mM CaCl2 and 0.1 mM MgSO4, pH=7.5). The homogenate was incubated at 37° C. for 10 minutes and centrifuged at 25,000×g for 15 minutes at 40° C. The pellet was washed 3 times more by resuspension in the 20 volumes of the same buffer and centrifugation at the above parameters. The final pellet was stored at −20° C. under 4.6 ml of the incubation buffer and was suspended just before the incubation with radioligand.
The binding of [^3H]methyllycaconitine ([^3H]MLA), a probe for the α7 neuronal nicotinic acetylcholine receptor subtype, was determined using a modification of the method of Davies et al., “Characterisation of the binding of [^3H]methyllycaconitine: a new radioligand for labelling α7-type neuronal nicotinic acetylcholine receptors”, Neuropharmacology, 38, 679–690 (1999). [^3H]-MLA (25.4 Ci/mmol) was purchased from Tocris Cookson Ltd., Bristol, U.K. Binding was performed in duplicate, in a final volume of 250 μL of the incubation medium, containing 20 mM HEPES, 144 mM NaCl, 1.5 mM KCl, 2 mM CaCl2, 1 mM MgSO4 and 0.05% BSA, pH=7.5. Reaction was initiated by the addition of 100 μl of membrane suspension to the samples containing a desired concentration of test compounds and 2.5 nM [^3H]-MLA (final concentration) and incubated for 2 hours at room temperature. Total binding was measured in the absence of unlabelled ligand, and nonspecific binding was determined in the presence of 1 μM unlabelled MLA. The binding reaction was terminated by dilution of samples with 3 ml of ice-cold incubation buffer followed by immediate filtration through presoaked in 0.5% polyethylenimine glass fiber filters (S&S, grade #32) using a Brandel harvester system. Filters were rinsed three times with 3 ml of ice-cold buffer, transferred to scintillation vials and 4 ml of scintillation cocktail was added.

[4] = rat brain membranes, 2.5 nM [3H]-MLA

T1 sequence (P09483 31-630): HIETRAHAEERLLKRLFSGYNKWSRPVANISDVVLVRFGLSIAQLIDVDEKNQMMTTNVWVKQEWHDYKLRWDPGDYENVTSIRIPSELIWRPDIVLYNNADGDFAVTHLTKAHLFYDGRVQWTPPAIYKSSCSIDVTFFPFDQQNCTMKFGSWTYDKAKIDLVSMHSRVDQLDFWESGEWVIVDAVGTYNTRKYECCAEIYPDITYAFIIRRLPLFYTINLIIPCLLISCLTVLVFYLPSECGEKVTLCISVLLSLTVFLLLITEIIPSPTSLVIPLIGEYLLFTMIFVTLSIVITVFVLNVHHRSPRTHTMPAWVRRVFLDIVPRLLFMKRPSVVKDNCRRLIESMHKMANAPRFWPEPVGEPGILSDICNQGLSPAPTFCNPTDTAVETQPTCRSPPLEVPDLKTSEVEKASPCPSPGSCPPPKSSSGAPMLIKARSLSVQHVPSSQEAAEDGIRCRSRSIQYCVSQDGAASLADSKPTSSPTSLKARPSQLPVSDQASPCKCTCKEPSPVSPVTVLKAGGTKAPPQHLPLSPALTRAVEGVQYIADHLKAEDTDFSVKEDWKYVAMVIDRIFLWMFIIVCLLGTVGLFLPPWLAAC
T1 sequence (P12390 25-500): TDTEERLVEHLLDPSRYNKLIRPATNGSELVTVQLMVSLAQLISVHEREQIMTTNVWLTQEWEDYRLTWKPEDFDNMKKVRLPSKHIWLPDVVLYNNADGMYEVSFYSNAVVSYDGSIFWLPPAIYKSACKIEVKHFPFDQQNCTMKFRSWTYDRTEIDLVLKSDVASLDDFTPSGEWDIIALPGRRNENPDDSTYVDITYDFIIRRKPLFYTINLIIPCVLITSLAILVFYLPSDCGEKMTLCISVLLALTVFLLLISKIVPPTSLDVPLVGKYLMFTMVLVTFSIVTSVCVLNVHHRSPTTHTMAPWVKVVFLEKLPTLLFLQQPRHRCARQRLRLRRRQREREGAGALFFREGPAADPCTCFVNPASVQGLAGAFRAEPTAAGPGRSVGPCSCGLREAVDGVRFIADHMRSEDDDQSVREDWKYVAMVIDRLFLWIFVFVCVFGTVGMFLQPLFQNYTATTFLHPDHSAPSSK
T2 sequence (Q05941 23-502): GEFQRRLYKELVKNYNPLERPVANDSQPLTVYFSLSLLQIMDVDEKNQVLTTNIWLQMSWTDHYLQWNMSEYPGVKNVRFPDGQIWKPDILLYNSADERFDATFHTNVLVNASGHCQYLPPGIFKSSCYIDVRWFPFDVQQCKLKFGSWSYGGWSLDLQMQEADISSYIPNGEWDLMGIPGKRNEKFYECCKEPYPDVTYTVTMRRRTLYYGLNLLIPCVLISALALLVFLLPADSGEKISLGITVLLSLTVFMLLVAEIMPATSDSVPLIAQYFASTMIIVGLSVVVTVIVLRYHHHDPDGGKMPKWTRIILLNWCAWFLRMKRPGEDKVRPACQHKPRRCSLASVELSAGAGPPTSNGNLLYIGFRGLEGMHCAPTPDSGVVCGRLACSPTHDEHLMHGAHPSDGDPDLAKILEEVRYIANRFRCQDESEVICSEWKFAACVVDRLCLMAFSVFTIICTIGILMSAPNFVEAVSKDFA

Molecule	IC50 [1]	Ki [2]	Ki [3, 4]	Ki [3]
CCCCC/C=C\CCC[n+]1cccc([C@@H]2CCCN2C)c1 [NDNB-4c, (S)-cis-1-Dec-4-enyl-3-(1-methyl-pyrrolidin-2-yl)-pyridinium bromide hydrobromide salt]	1.48 µM	7.79 µM	–	–
CN1CCC[C@H]1c1ccc[n+](CCCCCCC2CCCC2)c1 [NCyNB-5, (S)-1-(6-Cyclopentyl-hexyl)-3-(1-methyl-pyrrolidin-2-yl)-pyridinium bromide hydrobromide salt]	–	5.54 µM	88.7 µM	–
CCCCCCC#CCC[n+]1cccc([C@@H]2CCCN2C)c1 [NDNB-3y, (S)-1-Dec-3-ynyl-3-(1-methyl-pyrrolidin-2-yl)-pyridinium bromide]	2.59 µM	0.81 µM	–	–
CC(C)=CCCCCC[n+]1cccc([C@@H]2CCCN2C)c1 [NONB-6e7M, (S)-1-(7-Methyl-oct-6-enyl)-3-(1-methyl-pyrrolidin-2-yl)-pyridinium bromide hydrobromide]	1.99 µM	0.45 µM	–	–
CCCC/C=C/CC[n+]1cccc([C@@H]2CCCN2C)c1 [NONB-3t, (S)-trans-3-(1-Methyl-pyrrolidin-2-yl)-1-oct-3-enyl-pyridinium bromide hydrobromide salt]	3.47 µM	3.97 µM	–	–
CCCCCCCCCC[n+]1cccc([C@@H]2CCCN2C)c1 [NDNI, N-n-decylnicotinium iodide, reference compound]	> 100 µM	0.093 µM	–	–
CCCCCCCC[n+]1cccc([C@@H]2CCCN2C)c1 [NONI, N-n-octylnicotinium iodide, reference compound]	0.62 µM	–	–	–
α-Bungarotoxin [reference compound]	–	–	–	0.0072 µM
CC(C)CCCCCC[n+]1cccc([C@@H]2CCCN2C)c1 [NONB-7M, (S)-1-(7-Methyl-octyl)-3-(1-methyl-pyrrolidin-2-yl)-pyridinium bromide hydrobromide salt]	> 100 µM	0.44 µM	–	–
C=CCCCCCC[n+]1cccc([C@@H]2CCCN2C)c1 [NONB-7e, (S)-3-(1-Methyl-pyrrolidin-2-yl)-1-oct-7-enyl-pyridinium bromide]	2.61 µM	0.45 µM	–	–
CCOCCOCC[n+]1cccc([C@@H]2CCCN2C)c1 [NONB-3O6O, (S)-1-[2-(2-Ethoxy-ethoxy)-ethyl]-3-(1-methyl-pyrrolidin-2-yl)-pyridinium bromide]	–	1.2 µM	–	–
CCCCC/C=C/CCC[n+]1cccc([C@@H]2CCCN2C)c1 [NDNB-4t, (S)-trans-1-Dec-4-enyl-3-(1-methyl-pyrrolidin-2-yl)-pyridinium bromide]	0.33 µM	0.32 µM	–	–
CN1CCC[C@H]1c1ccc[n+](CCCCCCC2CCC2)c1 [NCyNB-4, (S)-1-(6-Cyclobutyl-hexyl)-3-(1-methyl-pyrrolidin-2-yl)pyridinium bromide hydrobromide salt]	–	7.2 µM	30.3 µM	–
CCCCC#CCC[n+]1cccc([C@@H]2CCCN2C)c1 [NONB-3y, (S)-3-(1-Methyl-pyrrolidin-2-yl)-1-oct-3-ynyl-pyridinium bromide]	1.68 µM	0.2 µM	–	–
CN1CCC[C@H]1c1ccc[n+](CCCCCCC2CCCCC2)c1 [NCyNB-6, (S)-1-(6-Cyclohexyl-hexyl)-3-(1-methyl-pyrrolidin-2-yl)-pyridinium bromide hydrobromide salt]	–	4.56 µM	42.7 µM	–
CCCC/C=C\CC[n+]1cccc([C@@H]2CCCN2C)c1 [NONB-3c, (S)-cis-3-(1-Methyl-pyrrolidin-2-yl)-1-oct-3-enyl-pyridinium bromide hydrobromide salt]	2.02 µM	0.086 µM	–	–
